The values that follow come from patent US6583150B1, “Pharmaceutical composition based on polyaromatic compounds” (Laboratorie L. Lafon, priority 1999, dated 2003).

Data set [1] is described as follows: Determination of the maximum tolerated dose (MTD). In kind it is in vivo. The note with it: mouse, in vivo, ip; single intraperitoneal administration, survival over 14 days, B6D2F1/Jico mice. As for the experimental part: The evaluation of the maximum tolerated dose was carried out on 4- to 6-week-old B6D2F1/Jico mice. […] The value of the MTD (expressed in mg/kg) is determined from observing the survival rate of the animals over a period of 14 days after a single administration of the product under consideration. The change in the weight of the animals is also monitored over this period.

A further data set has as its system T24. The data set can be described thus: MTT cytotoxicity test, T24. In kind it is cell-based. The note with it: Homo sapiens, T-24, T24 bladder cancer, 72 hours, read-out: concentrations flanking the IC50. As to the method: (§1) The influence of the compounds of formulae I and II on neoplastic cells was evaluated using the MTT calorimetric test. The principle of the MTT test is based on the mitochondrial reduction by metabolically active live cells of the yellow-colored product MTT (3-(4,5-dimethylthiazol-2-yl)-2,5-diphenyltetrazolium bromide) to a blue-colored product, formazan. The amount of formazan thus obtained is directly proportional to the amount of live cells present in the culture well(s). This amount of formazan is measured by spectrophotometry.
(§2) The cell lines are maintained in monolayer culture at 37° C. in stoppered culture dishes containing 25 MM HEPES MEM (Minimum Essential Medium) base medium. This medium, which is suitable for growing a range of varied diploid or primary mammalian cells, is then supplemented: […]
(§3) with a an amount of 5% FCS (Fetal Calf Serum) decomplemented at 56° C. for 1 hour, with 0.6 mg/mL of L-glutamine, with 200 IU/mL of penicillin, with […] of streptomycin, with 0.1 mg/mL of gentamicin.
(§4) The 12 human cancer cell lines used were obtained from the American Type Culture Collection (ATCC, Rockville, Md., USA). These 12 cell lines are: […]

In the next data set the test system is T-47D. The data set can be described thus: MTT cytotoxicity test, T-47D. In kind it is cell-based. To be noted: Homo sapiens, T47D, T-47D breast cancer, 72 hours, read-out: concentrations flanking the IC50. As for the experimental part: as §1, §2, §3, §4

In turn, `O=C1c2ncccc2-c2nc3ccccc3c3ccnc1c23` [CRL 8299, Benzo[b]pyrido[4,3,2-de][1,7]phenanthroline-8-one] had a maximal tolerated dose (MTD) at 14 days in data set [1] of 80 mg/kg. Further, the IC50 is under 0.1 nM in the data set with T24 and 10 nM in the data set on T-47D.
